# Legend:
# [1] = target: T1, Estrogenic Receptor of Mouse Uterus (Mus musculus, UniProt P19785); assay: Relative affinity of the bond, estrogen receptor (tritiated estradiol displacement); format: binding; conditions: for affinity for the estrogen receptors: at the second time (incubation); for Relative affinity of the bond (RAB), Oestrogen, 2 H: incubation 2 H at 0° C.; for Relative affinity of the bond (RAB), Oestrogen, 2 H / Relative affinity of the bond (RAB), Oestrogen, 6 H / Relative affinity of the bond (RAB), Oestrogen Receptors, 5 Hrs / Relative affinity of the bond (RAB), Oestrogen Receptors, 2 Hrs: RAB=100(CH)/(CX); for Relative affinity of the bond (RAB), Oestrogen, 6 H: incubation 6 H (second time); for Relative affinity of the bond (RAB), Oestrogen Receptors, 5 Hrs: incubation time 5 Hrs; for Relative affinity of the bond (RAB), Oestrogen Receptors, 5 Hrs / Relative affinity of the bond (RAB), Oestrogen Receptors, 2 Hrs: second part of the table; for Relative affinity of the bond (RAB), Oestrogen Receptors, 2 Hrs: incubation time 2 Hrs
# T1 construct: their uteri were removed, then homogenized at 0° C; from tissue; host or cells: uterine cytosol (105,000 g supernatant) of immature female mice
# T1 sequence (P19785 1-599): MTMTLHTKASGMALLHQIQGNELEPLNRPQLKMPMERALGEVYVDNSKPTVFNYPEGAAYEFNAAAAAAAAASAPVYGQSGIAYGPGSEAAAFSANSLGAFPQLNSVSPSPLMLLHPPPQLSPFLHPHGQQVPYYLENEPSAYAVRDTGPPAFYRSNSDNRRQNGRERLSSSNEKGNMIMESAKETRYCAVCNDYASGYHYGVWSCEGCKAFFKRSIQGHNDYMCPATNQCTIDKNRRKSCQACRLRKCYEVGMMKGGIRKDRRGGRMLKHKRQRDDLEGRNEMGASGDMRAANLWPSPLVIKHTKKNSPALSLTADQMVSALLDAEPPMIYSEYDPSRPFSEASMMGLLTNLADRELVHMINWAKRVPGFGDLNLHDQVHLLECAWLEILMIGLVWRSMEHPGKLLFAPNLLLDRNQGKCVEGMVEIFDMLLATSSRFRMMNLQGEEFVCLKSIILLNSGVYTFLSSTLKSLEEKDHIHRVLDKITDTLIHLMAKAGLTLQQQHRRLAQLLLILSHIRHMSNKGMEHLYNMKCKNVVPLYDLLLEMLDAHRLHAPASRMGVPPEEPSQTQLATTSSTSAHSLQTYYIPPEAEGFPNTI
# Description: Estrogenic Receptor of Mouse Uterus:
# Impuberal female mice aged from 18 to 21 days were killed and their uteri were removed, then homogenized at 0° C. with the aid of a Potter teflon-glass in a TS buffered solution (10 mM Tris, 0.25 M saccharose, HCL pH 7.4) (1 g of tissue for 25 ml of TS). The homogenate was ultracentrifuged (105,000 g×90 min) at 0° C. and aliquots of the supernatant were incubated at 0° C. or at 25° C. for a time (t) with a constant concentration (T) of tritiated estradiol in the presence of increasing concentrations (0-1000×10^−9 M) either of cold estradiol, or of the cold product to be tested. The concentration (B) of bound tritiated estradiol was measured in each incubate by the technique of adsorption on dextran carbon.
# Calculation of the Relative Affinty of the Bond
# The calculation of the Relative Affinity of the Bond (RAB) was identical for all the receptors. The following 2 curves were traced; the percentage of the bound tritiated hormone [formula]
# was a function of the logarithm of the concentration of the cold reference hormone and [formula]
# as a function of the logarithm of the concentration of the cold product tested.
# One determined the straight line of the equation [formula]
# The intersections of the straight line I50 and of the curves make it possible to evaluate the concentrations of the cold reference hormone (CH) and of the tested cold product (CX) which inhibit to an extend of 50% the binding of the tritiated hormone upon the receptor. The relative affinity of the bond (RAB) of the tested product is determined by the equation
# [2] = system: MCF-7 mammary tumoral cells; assay: Anti-proliferative activity upon the growth of MCF-7 cells (DNA measurement with DABA); format: cell-based; conditions: 6 days, inhibition of the increase of DNA, read-out: concentration which inhibited the growth of MCF7 to an extent of 50% (IC50)
# Description: B. Anti-proliferative activity of the products of the invention upon the growth of MCF-7 mammary tumoral cells.
# The MCF-7 strains were kept under culture in FCS(1) medium at 37° C. under a humid atmosphere containing 5% CO2 and the cells at subconfluence were harvested by trypsination (0.05% trypsine, 0.02% EDTA), then rinsed by gentle centrifugation. A sample of the cells in suspension was counted on Malassez cell.
# The cells, resuspended in FCS medium, were seeded at a rate of 30,000 cells per pit in multi-pit plates (24 pits of 2.5 cm^2) and twenty four hours after seeding (DO), the product to be tested was added to the medium in ethanolic solution (final concentration in ethanol: 0.1%), at a concentration of 10^−12 to 10^−6 M, the control pits receiving the same concentration of ethanol. The media were renewed every 48 hours and at the end of the experiment (D6), the medium was sucked off and the cells were immediately fixed with 150 microliters of methanol to estimate the DNA. The anti-proliferative activity of the products was evaluated by their capacity to inhibit the increase of DNA.
# The DNA was measured by a fluorimetric method employing DABA (3,5-diaminobenzoic acid) (2): 150 microliters of DABA were added to each of the pits and the plates were then incubated for 45 minutes at 56° C., then 2 ml of 1 N HCl were added. The fluorescence was measured with the aid of a fluorimeter (length of the exiting wave: 408 nm, length of the emitting wave: 501 nm). The quantity of DNA per pit was evaluated with reference to a standard scale obtained by treating a standard DNA from calf thymus under the same conditions.
# The concentration in nM which inhibited the growth of MCF7 to an extent of 50% (IC50) was determined in the manner indicated below:
# (1) The fetal calf serum (FCS) culture medium was prepared as follows: MEM medium (minimal essential medium) to which were added:
# Non-essential amino acids (GIBCO),
# Peni-strepto (100 U/ml penicillin, 0.1 mg/ml streptomycin),
# Fetal calf serum containing no steroids (10% final concentration).
# (2) Puzas and Goodman, Analytical Biochemistry, Vol. 86, pp. 50, 1978.
SMILES,IC50 [2] [nM],"Relative affinity of the bond (RAB), Oestrogen, 2 H [1]","Relative affinity of the bond (RAB), Oestrogen, 6 H [1]","Relative affinity of the bond (RAB), Oestrogen Receptors, 5 Hrs [1]","Relative affinity of the bond (RAB), Oestrogen Receptors, 2 Hrs [1]",affinity for the estrogen receptors [1]
"CCCCN(C)C(=O)CCCCCCCc1ccc([C@H]2C[C@]3(C)[C@@H](O)CC[C@H]3[C@@H]3CCc4cc(O)ccc4[C@H]32)cc1 [Example 8, N-Butyl-4-[3,17β-dihydroxy-Δ^1,3,5(10)-estratrien-11β-yl]-N-methyl benzene octanamide]",0.04,–,–,–,–,marked affinity
CCCCN(C)C(=O)CCCCCC#Cc1ccc([C@H]2C[C@]3(C)[C@@H](O)CC[C@H]3[C@@H]3CCc4cc(O)ccc4[C@H]32)cc1 [Example 35],0.04,0.13,12,–,–,–
"CCCCN(C)C(=O)COCCCCCC#Cc1ccc([C@H]2C[C@]3(C)[C@@H](O)CC[C@H]3[C@@H]3CCc4cc(O)ccc4[C@H]32)cc1 [Example 37, 2-((7-(4-(3,17β-dihydroxy-Δ^1,3,5(10)-estratrien-11β-yl)-phenyl)-6-heptynyl.)-oxy)-N-butyl-N-methyl Acetamide]",0.03,0.6,28,–,–,marked affinity
"CCCCN(C)C(=O)COCCCCCOc1ccc([C@H]2C[C@]3(C)[C@@H](O)CC[C@H]3[C@@H]3CCc4cc(O)ccc4[C@H]32)cc1 [Example 43, N-butyl-[5-[4-(3,17β-dihydroxy-Δ^1,3,5(10)-estratrien-11β-yl)-phenoxy]-pentyloxy]-N-methyl acetamide]",0.002,4.0,3.0,–,–,–
"CCCCN(C)C(=O)CCCCCCCOc1ccc([C@H]2C[C@]3(C)[C@@H](O)CC[C@H]3[C@@H]3CCc4cc(O)ccc4[C@H]32)cc1 [Example 46, N-butyl-8-[4-(3,17β-dihydroxy-Δ^1,3,5,(10)-estratrien-11β-yl)-phenoxy]-N-methyl Octanamide]",0.006,0.3,65,–,–,marked affinity
"C#C[C@]1(O)CC[C@H]2[C@@H]3CCc4cc(O)ccc4[C@H]3[C@@H](CCCCCCCCCCC(=O)N(C)C(C)C)C[C@@]21C [Example 55, 3,17β-Dihydroxy-N-Methyl-N-Isopropyl-19-Nor-17α-Δ^1,3,5(10)-Pregnatrien-20-Yn-118-Undecanamide]",0.01,1.2,45,–,–,marked affinity

# Further lines, with some results ahead:
IC50 [2] [nM],"Relative affinity of the bond (RAB), Oestrogen, 2 H [1]","Relative affinity of the bond (RAB), Oestrogen, 6 H [1]","Relative affinity of the bond (RAB), Oestrogen Receptors, 5 Hrs [1]","Relative affinity of the bond (RAB), Oestrogen Receptors, 2 Hrs [1]",SMILES,affinity for the estrogen receptors [1]
0.1,0.6,50,–,–,"CC(C)N(C)C(=O)COCCCCCCCC[C@H]1C[C@]2(C)[C@@H](O)CC[C@H]2[C@@H]2CCc3cc(O)ccc3[C@@H]12 [Example 71, [[8(3,17beta-dihydroxy-estra-1,3,5(10)-trien-11beta-yl)-octyl]-oxy]-N-methyl-N-(1-methylethyl) acetamide]",marked affinity
0.03,–,–,20,–,"CCCCN(C)C(=S)COCCCCCOc1ccc([C@H]2C[C@]3(C)[C@@H](O)CC[C@H]3[C@@H]3CCc4cc(O)ccc4[C@H]32)cc1 [Example 78, N-butyl-[5-[4-(3,17β-dihydroxy-δ^1,3,5(10)-estratrien-11β-yl)-phenoxy]-pentyloxy]-N-methyl-ethanethioamide]",–
0.035,–,–,16,–,"CCCCN(C)C(=S)CCCCCCCOc1ccc([C@H]2C[C@]3(C)[C@@H](O)CC[C@H]3[C@@H]3CCc4cc(O)ccc4[C@H]32)cc1 [Example 79, N-butyl-8-(4-(3,17β-dihydroxy-δ^1,3,5(10)-estratrien-11β-yl)-phenoxy)-N-methyloctanethioamide]",–
0.02,–,–,23,0,"CN(CC(F)(F)C(F)(F)C(F)(F)F)C(=O)CCCCCCCOc1ccc([C@H]2C[C@]3(C)[C@@H](O)CC[C@H]3[C@@H]3CCc4cc(O)ccc4[C@H]32)cc1 [Example 82, 8-(4-(δ^1,3,5(10)-estratrien-3,17β-diol-11β-yl)-phenoxy)-N-(2,2,3,3,4,4,4-heptafluorobutyl)-N-methyl-octanamide]",–
0.007,–,–,29,3.3,CCCCN(C)C(=O)COCCCCCCOc1ccc([C@H]2C[C@]3(C)[C@@H](O)CC[C@H]3[C@@H]3CCc4cc(O)ccc4[C@H]32)cc1 [Example 83],–
0.009,–,–,11.7,–,CCCCN(C)C(=O)CSCCCCCc1ccc([C@H]2C[C@]3(C)[C@@H](O)CC[C@H]3[C@@H]3CCc4cc(O)ccc4[C@H]32)cc1 [Example 86],–
0.015,–,–,47,2.8,"CCCCN(C)C(=O)CCCCCCCSc1ccc([C@H]2C[C@]3(C)[C@@H](O)CC[C@H]3[C@@H]3CCc4cc(O)ccc4[C@H]32)cc1 [Example 92, N-Butyl-8-(4-(δ^1,3,5(10)-Estratrien-3,17β-Diol-11 β-yl)-Phenyl-Thio)-N-Methyl-Octanamide]",marked affinity
–,–,–,16,–,"CCCCN(C)C(=O)CSCCCCCOc1ccc([C@H]2C[C@]3(C)[C@@H](OC(=O)CCC(=O)O)CC[C@H]3[C@@H]3CCc4cc(O)ccc4[C@H]32)cc1 [Example 96, Monobutanedioate of 11β-(4-(5-((2-(Butyl-Methylamino)-2-Oxoethyl)-Thio)-Pentyloxy)-Phenyl)δ^1,3,5(10)-Estratrien-3-ol-17 β-yl]",–
